Measured values reported in patent US20260028350A1, “TOXIN MOLECULE SUITABLE FOR ANTIBODY-DRUG CONJUGATE” (Minghui Pharmaceutical (Hangzhou) Limited, priority 2022, published 2026).

System: KPL-4 Cells
Assay: Cell proliferation inhibition test (CellTiter-Glo, 72h)
Assay type: cell-based
Conditions: 72h incubation
Experimental: KPL-4 Cells in the logarithmic phase of growth were collected and re-suspended with fresh RPMI1640 complete cell culture medium, and adjusted to 2×10^4 cells/mL after cell counting. Cells were seeded into 96-well cell culture plates at 100 µL/well, and placed in a CO2 incubator (37° C., 5% CO2) overnight. In the next day, one of the cell culture plates were taken out, balanced to room temperature, and CellTiter-Glo reagent (Promega, USA), which was pre-balanced to room temperature and evenly mixed, was added into the plate at 100 μl. The plate was kept in dark for 30 min, and then luminescence value was read with a microplate reader (denoted as Go value). The other cell culture plates were taken out and added with different concentrations of test compounds or DMSO (final concentration 0.5%) in corresponding wells. After incubated for 72h in a CO2 incubator, the cell culture plates were balanced to room temperature and tested for cell viabilities using CellTiter-Glo reagent as described above (denoted as G3 value).
DXd was used as a positive reference compound with the following structure:
The cell proliferation rates were calculated using the following formula: Cell proliferation rate (%)=(mean of G3compound−mean of G0)/(mean of G3DMSO−mean of G0)×100.

[1] = KPL4, 72 h, Table 1 run (DXd: average of 2 measurements)

CC[C@@]1(O)C(=O)OCc2c1cc1n(c2=O)Cc2c-1nc1cc(F)c(C)c3c1c2[C@@H](NC(=O)CO)CS3 [DXd, reference compound] showed a GI50 [1] of 45.4 nM and a GI50 (KPL4, 72 h, Table 2 run) of 22.8 nM.
Molecule CC[C@@]1(O)C(=O)OCc2c1cc1n(c2=S)Cc2c-1nc1cc(F)c(C)cc1c2CN [Example 2] has a GI50 [1] of 2.82 nM.
With CC[C@@]1(O)C(=O)OCc2c1cc1n(c2=S)Cc2c-1nc1cc(F)c(C)cc1c2CNC(=O)CO [Example 3] the GI50 [1] was 6.27 nM.
Work on CC[C@@]1(O)C(=O)OCc2c1cc1n(c2=S)Cc2c-1nc1cc(F)c(C)cc1c2CCCCO [Example 4] yielded a GI50 [1] of 2.23 nM.
Molecule CC[C@@]1(O)C(=O)OCc2c1cc1n(c2=S)Cc2c-1nc1ccc(N)c3c1c2CCC3 [Example 5] has a GI50 [1] of 1.84 nM.
Work on CC[C@@]1(O)C(=O)OCc2c1cc1n(c2=S)Cc2cc3c(CCCCO)c(C)c(F)cc3nc2-1 [Example 6] yielded a GI50 (KPL4, 72 h, Table 2 run) of 3.45 nM.
CC[C@@]1(O)C(=O)OCc2c1cc1n(c2=S)Cc2c-1nc1cc3c(cc1c2CNC(=O)CO)OCO3 [Example 8] showed a GI50 (KPL4, 72 h, Table 2 run) of 12 nM.
For CC[C@@]1(O)C(=O)OCc2c1cc1n(c2=S)Cc2c-1nc1cc3c(cc1c2CNC(=O)CN)OCO3 [Example 9], the GI50 (KPL4, 72 h, Table 2 run) was 12.2 nM.
CC[C@@]1(O)C(=O)OCc2c1cc1n(c2=S)Cc2c-1nc1cc3c(cc1c2CCNC(C)C)OCO3 [Example 10] was tested, and the GI50 (KPL4, 72 h, Table 2 run) was 2.24 nM.
CC[C@@]1(O)C(=O)OCc2c1cc1n(c2=S)Cc2c-1nc1ccccc1c2CCNC(C)C [Example 11] was tested, and the GI50 (KPL4, 72 h, Table 2 run) was 6.48 nM.
CC[C@@]1(O)C(=O)OCc2c1cc1n(c2=S)Cc2c-1nc1cc3c(cc1c2C12CC(N)(C1)C2)OCO3 [Example 12] showed a GI50 (KPL4, 72 h, Table 2 run) of 2.98 nM.
In the case of CC[C@@]1(O)C(=O)OCc2c1cc1n(c2=S)Cc2cc3cc(N)c(F)cc3nc2-1 [Example 13], the GI50 (KPL4, 72 h, Table 2 run) is reported as 0.63 nM.
Work on CC[C@@]1(O)C(=O)OCc2c1cc1n(c2=S)Cc2c-1nc1cc3c(cc1c2CNC(=O)C(O)C1CC1)OCO3 (stereo partly shown) [Example 14] yielded a GI50 (KPL4, 72 h, Table 2 run) of 3.49 nM.
With CC[C@@]1(O)C(=O)OCc2c1cc1n(c2=S)Cc2c-1nc1cc3c(cc1c2CNC(=O)C(C)O)OCO3 (stereo partly shown) [Example 15] the GI50 (KPL4, 72 h, Table 2 run) was 4.13 nM.
With CC[C@@]1(O)C(=O)OCc2c1cc1n(c2=S)Cc2c-1nc1cc3c(cc1c2CNC(=O)C1CC(O)C1)OCO3 (stereo partly shown) [Example 16] the GI50 (KPL4, 72 h, Table 2 run) was 14.5 nM.
Work on CC[C@@]1(O)C(=O)OCc2c1cc1n(c2=S)Cc2c-1nc1cc3c(cc1c2CNC(=O)C[C@@H](C)O)OCO3 [Example 18] yielded a GI50 (KPL4, 72 h, Table 2 run) of 4.35 nM.
With CC[C@@]1(O)C(=O)OCc2c1cc1n(c2=S)Cc2c-1nc1cc3c(cc1c2CNC(=O)C[C@H](C)O)OCO3 [Example 19] the GI50 (KPL4, 72 h, Table 2 run) was 4.27 nM.
For CC[C@@]1(O)C(=O)OCc2c1cc1n(c2=S)Cc2c-1nc1cc(F)c(C)cc1c2CNC(=O)C1CCC(O)CC1 (stereo partly shown) [Example 21], the GI50 (KPL4, 72 h, Table 2 run) was 16.8 nM.
In the case of CC[C@@]1(O)C(=O)OCc2c1cc1n(c2=S)Cc2c-1nc1cc(F)c(C)cc1c2CNC(=O)C(C)O (stereo partly shown) [Example 22], the GI50 (KPL4, 72 h, Table 2 run) is reported as 2.81 nM.
For CC[C@@]1(O)C(=O)OCc2c1cc1n(c2=S)Cc2c-1nc1cc(F)c(C)cc1c2CNC(=O)C(O)C1CC1 (stereo partly shown) [Example 23], the GI50 (KPL4, 72 h, Table 2 run) was 1.73 nM.
CC[C@@]1(O)C(=O)OCc2c1cc1n(c2=S)Cc2c-1nc1cc(F)c(C)cc1c2CNC(=O)C[C@H](C)O [Example 24] was tested, and the GI50 (KPL4, 72 h, Table 2 run) was 2.81 nM.
With CC[C@@]1(O)C(=O)OCc2c1cc1n(c2=S)Cc2c-1nc1cc(F)c(C)cc1c2CNC(=O)C[C@@H](C)O [Example 25] the GI50 (KPL4, 72 h, Table 2 run) was 2.21 nM.
For CC[C@@]1(O)C(=O)OCc2c1cc1n(c2=S)Cc2c-1nc1cc(F)c(C)c3c1c2[C@@H](NC(=O)C[C@@H](C)O)CC3 [Example 26], the GI50 (KPL4, 72 h, Table 2 run) was 3.24 nM.
For CC[C@@]1(O)C(=O)OCc2c1cc1n(c2=S)Cc2c-1nc1cc(F)c(C)c3c1c2[C@@H](NC(=O)C[C@H](C)O)CC3 [Example 27], the GI50 (KPL4, 72 h, Table 2 run) was 2.93 nM.
With CC[C@@]1(O)C(=O)OCc2c1cc1n(c2=S)Cc2c-1nc1cc(F)c(C)c3c1c2[C@@H](NC(=O)C1CC(O)C1)CC3 (stereo partly shown) [Example 28] the GI50 (KPL4, 72 h, Table 2 run) was 10.8 nM.
Work on CC[C@@]1(O)C(=O)OCc2c1cc1n(c2=S)Cc2c-1nc1cc(F)c(C)c3c1c2[C@@H](NC(=O)C1CC(O)C1)CC3 (stereo partly shown) [Example 29] yielded a GI50 (Table 2 run) of 5.96 nM.
With CC[C@@]1(O)C(=O)OCc2c1cc1n(c2=S)Cc2c-1nc1cc(F)c(C)c3c1c2[C@@H](NC(=O)C1CC(O)C1)CC3 (stereo partly shown) [Example 30] the GI50 (Table 2 run) was 11.3 nM.
For CC[C@@]1(O)C(=O)OCc2c1cc1n(c2=S)Cc2c-1nc1cc(F)c(C)c3c1c2[C@@H](NC(=O)C1CCC(O)CC1)CC3 (stereo partly shown) [Example 31], the GI50 (KPL4, 72 h, Table 2 run) was 8.62 nM.
CC[C@@]1(O)C(=O)OCc2c1cc1n(c2=S)Cc2c-1nc1cc(F)c(C)c3c1c2[C@@H](NC(=O)C1CCC(O)CC1)CC3 (stereo partly shown) [Example 32] showed a GI50 (Table 2 run) of 8.47 nM.
With CC[C@@]1(O)C(=O)OCc2c1cc1n(c2=S)Cc2c-1nc1cc(F)c(C)c3c1c2[C@@H](NC(=O)C1CCC(O)CC1)CC3 (stereo partly shown) [Example 33] the GI50 (Table 2 run) was 6.34 nM.
